According to US20130197205A1, “CHITOSAN COVALENTLY LINKED WITH SMALL MOLECULE INTEGRIN ANTAGONIST FOR TARGETED DELIVERY” (Hoffmann-La Roche Inc., priority 2012, published 2013):
Like-named read-outs stand apart in the source and are kept apart here.

Molecular target: T1, αvβ3 (Homo sapiens, UniProt P05106+P06756, DEL719-788)
T1 construct: purchased R & D 3050-AV
Experiment: Human αVβ3 solid phase assay (fibrinogen binding)
Conditions: αvβ3-coated plates, fibrinogen as ligand
Description: Buffer used was Buffer A: 20 mM Tris, 150 mM NaCl, 1 mM CaCl2, 1 mM MgCl2, pH 7.4. […] After blocking, plates were washed 5 times with 200 uL of Buffer B (Buffer A+1 mM MnCl2). […] Plates were shaken for 2 minutes, and then incubated for 2 hours for 37° C. […] After the addition of 1st antibody and after the addition of 2nd antibody, plates were shaken for 2 minutes and incubated for 60 minutes at 37° C., and then washed 5 times with 200 uL of Buffer B correspondingly. […] Plates were shaken at RT for 5-8 min, and the development of a green color was gradually showing. After being added 100 uL/well Stop Buffer (1.0 M Phosphoric Acid ([…])), plates were read on Envision at Absorbance mode 450 nm.

T1 sequence (P06756 31-992 limits assumed, stated change not applied): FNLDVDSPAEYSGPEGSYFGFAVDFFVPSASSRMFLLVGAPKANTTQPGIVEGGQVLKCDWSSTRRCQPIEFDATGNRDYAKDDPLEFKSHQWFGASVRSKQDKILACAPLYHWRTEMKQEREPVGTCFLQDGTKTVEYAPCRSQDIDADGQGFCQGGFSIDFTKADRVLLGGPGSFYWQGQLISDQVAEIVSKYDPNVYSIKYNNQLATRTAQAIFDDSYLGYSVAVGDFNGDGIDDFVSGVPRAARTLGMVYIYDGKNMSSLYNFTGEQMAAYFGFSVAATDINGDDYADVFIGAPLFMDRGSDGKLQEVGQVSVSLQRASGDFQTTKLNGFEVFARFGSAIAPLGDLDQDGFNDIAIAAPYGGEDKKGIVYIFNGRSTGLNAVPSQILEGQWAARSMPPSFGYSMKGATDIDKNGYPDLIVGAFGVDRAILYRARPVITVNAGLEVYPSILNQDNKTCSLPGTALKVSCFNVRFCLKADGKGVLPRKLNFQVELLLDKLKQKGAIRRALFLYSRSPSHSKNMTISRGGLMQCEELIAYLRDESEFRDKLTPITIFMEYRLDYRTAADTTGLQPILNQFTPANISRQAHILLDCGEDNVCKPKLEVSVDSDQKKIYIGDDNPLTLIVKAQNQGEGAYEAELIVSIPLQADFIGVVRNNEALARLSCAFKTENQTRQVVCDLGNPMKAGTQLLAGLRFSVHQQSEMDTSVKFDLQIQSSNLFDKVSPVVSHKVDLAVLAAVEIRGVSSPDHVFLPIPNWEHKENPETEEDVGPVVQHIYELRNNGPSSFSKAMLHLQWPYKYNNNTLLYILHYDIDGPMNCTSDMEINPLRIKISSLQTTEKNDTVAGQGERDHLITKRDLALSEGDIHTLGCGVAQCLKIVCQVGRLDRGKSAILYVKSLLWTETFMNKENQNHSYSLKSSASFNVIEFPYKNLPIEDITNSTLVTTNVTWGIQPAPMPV
T1 sequence (P05106 27-718 limits assumed, stated change not applied): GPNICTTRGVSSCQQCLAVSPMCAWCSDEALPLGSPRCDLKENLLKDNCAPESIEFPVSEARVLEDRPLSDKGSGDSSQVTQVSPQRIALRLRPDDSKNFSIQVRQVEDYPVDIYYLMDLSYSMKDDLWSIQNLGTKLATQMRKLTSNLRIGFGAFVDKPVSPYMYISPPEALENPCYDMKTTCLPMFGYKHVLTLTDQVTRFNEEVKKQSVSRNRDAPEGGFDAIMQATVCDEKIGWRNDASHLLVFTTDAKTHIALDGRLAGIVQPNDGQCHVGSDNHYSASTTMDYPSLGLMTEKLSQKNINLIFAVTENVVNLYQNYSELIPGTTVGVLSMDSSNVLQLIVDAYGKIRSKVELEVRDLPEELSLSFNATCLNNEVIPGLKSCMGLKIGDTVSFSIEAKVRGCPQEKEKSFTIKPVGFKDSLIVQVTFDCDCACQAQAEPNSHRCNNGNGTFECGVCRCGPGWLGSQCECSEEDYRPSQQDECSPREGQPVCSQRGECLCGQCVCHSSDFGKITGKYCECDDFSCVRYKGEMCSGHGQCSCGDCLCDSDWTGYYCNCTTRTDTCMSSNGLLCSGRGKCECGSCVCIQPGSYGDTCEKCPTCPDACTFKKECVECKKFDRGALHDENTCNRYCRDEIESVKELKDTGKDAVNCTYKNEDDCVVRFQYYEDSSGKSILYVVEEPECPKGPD

IC50 (read-out: Binding IC50): 2 nM
IC50 (read-out: IC50 of control compound): ~2 nM
Structure (SMILES): COc1ccc(NC(=O)[C@H](CC(=O)O)NC(=O)CNC(=O)c2cccc(N=C(N)N)c2)cc1 [compound 28]
